Test results from article PMC4642847, “The PDB database is a rich source of alpha-helical anti-microbial peptides to combat disease causing pathogens” (F1000Research, 2015).
Where no end group is shown, it is not given here.

How the values were obtained:
[1] = tested on: Liberibacter crescens BT-1 (Lc)
[2] = tested on: Xylella fastidiosa 3A2 (Xf)
[3] = tested on: Xanthomonas arboricola 417 (Xa)

| Sequence | Minimum Inhibitory Concentration [1] [µM] | Minimum Inhibitory Concentration [2] | Minimum Inhibitory Concentration [3] |
| --- | --- | --- | --- |
| KWKVFKKIEKMGRNIRNGIVKAGPAIAVLGEAKAL [CECB, Cecropin B, reference compound] | 100 | 100 25 µM | – |
| TAYGIMARQPNSRKSFIDSSIRLAR [CHITI25] | >300 | 100 150 µM | 100 150 µM |
| TIWKGVPKFLRRVDTALKNI [PPC20] | 200 | 150 50 µM | – |
| TLDELELFTDAVERW [ISS15] | >300 | >300 >300 µM | >300 >300 µM |
| WKVFKKIEKMGRNIRNGIVKA [CBNT21, reference compound] | 200 | 200 25 µM | – |
